Measurements as given in patent US20120010178A1, “METHODS AND COMPOUNDS FOR TREATMENT OF NEURODEGENERATIVE DISORDERS” (PRESIDENT AND FELLOWS OF HARVARD COLLEGE, priority 2008, published 2012).
“Also recorded” adds a separate entry of the source. Like-named read-outs stand apart in the source and are kept apart here. Values belong to the compound of their own block, whether it stands above or below them.

Tests used:
SMN [1] = experiment: SMN immunofluorescence quantification (cytoplasm, nucleus, GEMs) in fibroblasts from SMA patients; type: cell-based, human; settings: for levels of cytoplasmic and nuclear SMN (in words): SMA patient fibroblasts, substance alone
Method: Specifically, fibroblasts from patients suffering from SMA were treated with Ionomycin (a channel modulator), Ouabain (a cardiac glycoside and channel modulator), PDGF, SAHA (an HDAC inhibitor), Lactacystin (a proteasome inhibitor) or WIN 55,212-2 (a cannabinoid receptor […] and GPCR ligand) for 72 hours. The cells were fixed with methanol/acetone and stained with Pharmingen BD antibodies, followed by 488 AlexaFluor staining. Images were obtained with 60× lens on Zeiss LSM510 META on an inverted confocal microscope.
For example, fibroblasts from patients suffering from SMA were treated with Ouabain, Digoxin or Lanatoside at a concentration of 0, 2.5 nM, 5 nM, 10 nM, 20 nM, 40 nM, 80 nM, […] for 72 hours. The cells were fixed with methanol/acetone and stained with Pharmingen BD antibodies, followed by 488 AlexaFluor staining. Images were obtained with 60× lens on Zeiss LSM510 META on an inverted confocal microscope.
An assay was established for high-content evaluation of SMN protein level in different cellular compartments after treatment with small molecules. SMN protein was visualized by immunofluorescent staining and multiple fields from each plate well were scanned by an automated confocal Opera microscope. […] For each well, the algorithm generated quantitative parameters representing number of cells, as well as SMN fluorescent intensity per cell in cytoplasm, nucleus, number and intensity of GEMs (FIG. 15). […] During the assay transfer to the robotic platform fixation with the ice cold methanol was technically limited, therefore to preserve the maximum possible window we chose to perform the screen on parental fibroblast with PFA fixation.
For fibroblast assays, human fibroblasts lines GM09677 (derived from patient with SMA type 1 disease) and GM03814 (derived from unaffected parental SMA carriers) were used (Coriell Cell Repositories). […] For secondary assays cells from GM09677 line were used.
Fibroblasts were grown in MEM media (Invitrogen) supplemented with 5% Fetal Bovine Serum (FBS, Invitrogen), 2 mM glutamine and 1% penicillin-streptomycin (100 U/ml) in a presence of 5% CO2 at 37° C. For drug treatments, cells were plated and treated 24 h later with 10 μM MG132 (Biomol International), […] Calpeptin (Biomol International), 10 mM ammonium chloride, 1 μM myristoylated PKI, or vehicle for the designated times.
(§1) Compounds were stored at appropriate temperature and dissolved accordingly to the manufacturers (Tocris, Enzo, EMD and Sigma-Aldrich) in DMSO (Sigma-Aldrich), unless stated otherwise (Monensin Na in EtOH, DMPQ in water). Growth factors and PDGF neutralizing antibodies (R&D Systems) were reconstituted with buffers recommended by the supplier. For generation of the dose curves, 1×10^3 fibroblasts were plated on to 96-well Greiner Senso plates (VWR) and treated with compounds on the second day then fixed and stained at the indicated time points. For GSK inhibitors and performing p-GSK3b(Ser9) detection, two days after plating growth media containing 5% FBS was replaced to the media with FBS reduced down to 0.5%, to starve cells for 72 hours. Addition of the GSK inhibitors was done in 5% FBS enriched media.

SMN [2] = experiment: SMN levels in mouse (ES-cell derived) motor neurons; type: cell-based; settings: for SMN levels in motor neurons (in words): mouse motor neurons
Method: Mouse HB9-GFP derived SMN deficient motor neuron cells were incubated for 2 days with compounds from libraries and collections.
Motor neurons were produced from mouse ES-cells expressing cherry fluorescent protein (CFP) under the control of the motor neuron-selective Hb9 promoter, as previously described (Wichterle et al., 2002).
GFP expressing motor neurons were derived from mouse ES cells as described below. After growing for approximately 1 week, motor neurons were treated with allsterpaullone. Two days after treatment with allsterpaullone, cells were fixed and stained with SMN antibody or GFP antibody.
mES cells were differentiated into motor neurons according to methods adapted from Wichterle et. al., Cell (2002), 110:385-397. Briefly, mES cells were grown to 70-80% confluence in 10-cm plates (Falcon) in ES cell medium. To form embryoid bodies, cells were washed once with PBS to eliminate mES medium and then incubated with 1 ml of 0.25% trypsin (GIBCO) for 5-10 min at 21-25° C. (RT). Cells were then resuspended in 10 ml of DM1 medium (DMEM-F12, GIBCO), 10% knockout serum (GIBCO), penicillin, streptomycin, glutamine (GIBCO) and 2-mercaptoethanol (GIBCO), counted and plated at a concentration of 200,000 cells per ml in Petri dishes (Falcon). Two days later, embryoid bodies were collected and resuspended into new Petri dishes containing DM1 medium supplemented with RAc (100 nM; stock 1 mM in DMSO, Sigma) and HhAg (100 nM). […] treatment was repeated with the same concentration of RAc (100 nM) and high concentration of HhAg (1 μM). On day 6, the embryoid bodies were collected in a 15-ml Falcon tube, and incubated in Earle's balanced salt solution with 20 units of Papain and 1,000 units of DNase I (Worthington Biochemical) for 10 min at 37° C. The mixture was then triturated with a 10-ml pipette and centrifugated for 5 min at 800 rpm. The resulting cell pellet was washed with PBS and resuspended in F12 medium (F12 medium, GIBCO) with 2% fetal bovine serum (GIBCO), B-27 supplement (GIBCO), (GDNF and BDNF, 20 ng ml^−1, R&D Systems). The cells were counted and plated on poly-ornithine coated 96-well plates (VWR).

motor neurons = experiment: Motor neuron survival (mouse motor neurons, compound treatment); type: cell-based
Method: Mouse motor neurons were treated with […] inhibitors. The levels of both cytoplasmic and nuclear SMN were detected and quantified using the method described in Example 2. The results shown in FIG. 14b indicate that […] inhibitors increase motor neuron survival.
Another way of assessing motor neuron survival is by withdrawing the neurotrophic factors from the media. Briefly, motor neurons are grown in media containing neurotrophic factors. The neurotrophic factors are then withdrawn from the growth media, e.g., cells transferred to media having no neurotrophic factors or neurotrophic factor containing media exchanged with neurotrophic factors lacking media. The compound of interest is added and motor neurons are counted on a daily basis.

[3] = molecular target: T1, GSK3b (Ser-9 phosphorylation) (Homo sapiens, UniProt P49841); experiment: p-GSK(Ser9) phosphorylation in patient fibroblasts (western blot / immunofluorescence); type: cell-based
T1 construct: endogenous in cells; host or cells: SMA patient fibroblasts (GM09677), starved in 0.5% FBS before treatment
T1 sequence (P49841 whole entry): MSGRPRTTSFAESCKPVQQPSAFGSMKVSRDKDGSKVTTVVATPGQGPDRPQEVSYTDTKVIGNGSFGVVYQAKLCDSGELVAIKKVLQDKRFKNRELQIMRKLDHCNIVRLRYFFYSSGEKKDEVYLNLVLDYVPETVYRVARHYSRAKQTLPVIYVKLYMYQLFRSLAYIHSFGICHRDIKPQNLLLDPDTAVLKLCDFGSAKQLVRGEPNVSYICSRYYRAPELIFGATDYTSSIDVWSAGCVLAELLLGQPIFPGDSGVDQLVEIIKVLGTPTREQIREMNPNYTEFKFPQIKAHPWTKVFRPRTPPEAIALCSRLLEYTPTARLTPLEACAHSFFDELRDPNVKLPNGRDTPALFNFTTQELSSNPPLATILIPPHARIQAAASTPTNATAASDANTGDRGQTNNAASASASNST
Method: as §1, with “media. As previously described, starvation increases levels of constitutively activate GSK3b kinase, allowing to achieve a more dramatic inhibitory effect when GSK inhibitors are added together with growth factors that are also known to inhibit GSK by Ser-9 phosphorylation. […] For all compounds and growth factors control wells received solvent in amount equivalent to the highest concentration of the compound in a dose curve. For PDGF inhibitory studies, cells were pre-treated with kinase inhibitors for 2 hours and PDGF was added with a fresh kinase inhibitor solution and incubated for an additional 3 days.” for “media.”

SMN [4] = experiment: High-content fibroblast screen for compounds that modulate SMN level; settings: human fibroblasts, 2-3 days with compound;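 note: Anti-SMN immunostaining with confocal imaging of nuclear and cytoplasmic SMN and gem counts, tested at 0.1, 1 and 10 uM, fold change relative to negative control wells on each plate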
Method: Human fibroblasts were incubated for 2-3 days with compounds from annotated collections. Cells were fixed and stained with an anti-SMN antibody. Confocal imaging was used to quantify SMN fluorescence in nucleus and cytoplasm and count Gems. Data were collected and subsequently analyzed by clustering compounds by suspected mechanism of action and chemical structure.
Following optimization of assay conditions on day 0, total of 500 human fibroblasts (GM09677 line) per well were seeded in 384-well plates, on day 3 they were treated with compounds (robot CyBio) from the annotated collections and on the 5 day plates were fixed and stained (robot MAPD) with an anti-SMN antibody and secondary antibody conjugated with 448 fluorophore (FIG. 19a). Compounds from the libraries were added in duplicate at three final concentrations of 10, 1 and 0.1 uM.
SMN detection was done on the automated confocal microscope Opera PerkinElmer with separate fluorescent exposures to 488 nM laser for and a UV light source to detect nuclei stained with Hoechst 33258 with a 20× objective.
After scanning on the Opera, an XML file extraction workflow, designed with Inforsense KDE, was used to assemble the data from multiple replicate plates of each HCS experiment including the quantitative parameters described above and chemical identities, chemical concentrations and indications of which wells were used for positive and negative controls. […] The fold-induction of SMN intensity values for each well treated with a library chemical were normalized to the SMN average intensity in multiple negative control wells per plate.
Since it is not known which form of SMN increase is the most essential, hits that scored in a duplicate at least in two different parameters greater than 1.3 fold at any of the three concentrations were selected (FIG. 19d). […] Further, 220 compounds were screened in the absence of anti-SMN primary antibody with the same assay conditions, to filter out the fluorescent compounds.

PC12 cells = settings: cited from earlier work
SMN [5] = experiment: Inhibition of PDGF-stimulated SMN increase in fibroblasts by kinase/receptor inhibitors; type: cell-based, human; settings: SMA patient fibroblasts, PDGF plus inhibitor or neutralizing antibody
Method: Fibroblasts from patients suffering from SMA were treated with PDGF at a concentration of 0, 0.3 ng/ml, 0.63 ng/ml, 1.25 ng/ml, 2.5 ng/ml, 5 ng/ml, 10 ng/ml or 20 ng/ml, in the absence or in the presence of 25 uM DMPQ or 25 uM AG-1296 respectively for 72 hours. The levels of both cytoplasmic and nuclear SMN were detected and quantified using the method described in Example 2.
(§2) Fibroblasts from patients suffering from SMA were either control treated or treated with PDGF at a concentration of 0, 0.63 ng/ml, 1.25 ng/ml, 2.5 ng/ml, 5 ng/ml, 10 ng/ml or 20 ng/ml, in the absence or in the presence of 50 uM LY294002 or 2 uM P1-103 respectively for 72 hours. The levels of both cytoplasmic and nuclear SMN were detected and quantified using the method described in Example 2.
as §2, with “of” for “of 50 uM LY294002 or”, “uM Papamycin” for “uM P1-103 respectively”, “Example x.” for “Example 2.”
A range of concentrations were tested in order not to miss the effects. SMN level were evaluated by Opera Evoteck in each cellular compartment and to assess the cell numbers that are summarized in the Table 3.
as §1, with “media. As previously described, starvation increases levels of constitutively activate GSK3b kinase, allowing to achieve a more dramatic inhibitory effect when GSK inhibitors are added together with growth factors that are also known to inhibit GSK by Ser-9 phosphorylation. […] For all compounds and growth factors control wells received solvent in amount equivalent to the highest concentration of the compound in a dose curve. For PDGF inhibitory studies, cells were pre-treated with kinase inhibitors for 2 hours and PDGF was added with a fresh kinase inhibitor solution and incubated for an additional 3 days.” for “media.”

Compound: CC(/C=C/C(=O)NO)=C\[C@@H](C)C(=O)c1ccc(N(C)C)cc1 [Trichostatin]
effect on GEMs (number / intensity, in words) (SMN [1]; fibroblasts): increased GEM counts at the lower concentrations
nuclear SMN at the higher dosage (in words) (SMN [1]; fibroblasts, higher dosage): increased nuclear SMN predominantly
SMN levels in motor neurons (in words) (SMN [2]): increase SMN
SMN levels in motor neurons (in words) (SMN [2]; listed as Trichastatin): increase SMN levels

Compound: O=C1Cc2c([nH]c3ccc(Br)cc23)-c2ccccc2N1 [kenpaullone, 9-bromopaullone]
motor neuron survival (in words) (motor neurons): promote motor neuron survival
SMN levels in motor neurons (in words) (SMN [2]): without increasing SMN protein levels

Compound: C=C(C)[C@H]1Cc2c(ccc3c2O[C@@H]2COc4cc(OC)c(OC)cc4[C@@H]2C3=O)O1 [roteonone]
spot intensity in ES-derived motor neurons (SMN [2]): decrease
SMN levels in motor neurons (in words) (SMN [2]): decrease

p-GSK-Ser9 phosphorylation (in words) ([3]; patient fibroblasts): promoted phosphorylation of p-GSK-Ser9
Compound: COc1ccc(CNC(=O)Nc2ncc([N+](=O)[O-])s2)cc1 [AR-A014418]
SMN level in fibroblast screen (increase or decrease) (SMN [4]): SMN is increase
SMN level fold increase (SMN [1]; at a concentration of 23 μM): 2 fold

p-GSK-Ser9 phosphorylation (in words) [3]: promoted phosphorylation of p-GSK-Ser9
Compound: CHIR98014
SMN level fold increase (SMN [1]): over 2.5 fold

Compound: Cn1cc(C2=C(c3ccc(Cl)cc3Cl)C(=O)NC2=O)c2ccccc21 [SB216763]
protection from EGTA induced death (PC12 cells): able to protect PC12 cells from EGTA induced death

Compound: COc1cc(OC)c2cc(-c3ccncc3)cnc2c1.Cl.Cl [DMPQ]
PDGF-stimulated SMN increase in presence of inhibitor (in words) (SMN [5]): sufficient to prevent PDGF effect on SMN; also recorded: abrogated; also recorded: blocked; also recorded: abolished
SMN level in fibroblast screen (increase or decrease) (SMN [4]): decreased SMN
levels of cytoplasmic and nuclear SMN (in words) (SMN [1]): decreases
levels of cytoplasmic and nuclear SMN (in words) (SMN [1]; listed as DMPQ dihydrochloride): decrease

Compound: COc1cc2c(cc1OC)[C@@H]1C(=O)c3ccc4c(c3O[C@@H]1CO2)C=CC(C)(C)O4 [deguelin]
spot intensity in ES-derived motor neurons (SMN [2]): decrease
SMN levels in motor neurons (in words) (SMN [2]): decrease
